# From patent US12378199B2, “Rigidified pentadentate chelating agents useful for the [Al18F]2+ labelling of biomolecules” (UNIVERSITÀ DEGLI STUDI DEL PIEMONTE ORIENTALE “A. AVOGADRO”, priority 2019, dated 2025)
# Experiment: stability of the AlF-18 complexes by incubation in human serum
# Format: in vitro ADME
# Protocol: The reactions for labelling with [AlF-18]^2+ were carried out at various pH (between 4 and 6.5) and at various temperatures (25, 37 and 80°). The preparation of [AlF-18]^2+ and the subsequent labelling with the chelating agents covered by the present patent were carried out according to the procedure cited by Bormans and colleagues (Nature Prot. 2018, 13, 2330-2347). The labeled products were purified using Sep-Pak Alumina N Plus Light cartridges and eluted with a 0.9% NaCl solution. All of the products were analyzed by means of radio-TLC and radio-HPLC and the stability of the tracers was studied at 10, 30, 60, 120 and 240 minutes by means of incubation in […] different solutions: human serum, PBS, EDTA 5 mM and 0.9% NaCl solutions.
# An additional advantage is the stability in human serum detected for the compounds of the present invention. An increased stability in human serum was measured for the chelating agent 2-AMPDA-HB, with 90% of AlF-18 still complexed after 120 minutes, whereas the complexed percentage was 55% for the chelating agent 2-AMPTA.
structure (smiles),measurement,setting,value
O=C(O)CN(CC(=O)O)CC1CCCCN1CC(=O)O (centres unmarked) [2-AMPTA],AlF-18 still complexed in human serum,after 120 minutes,55%
same,stability of the AlF-18 complexes in human serum,after 240 minutes,33%
